Measured values from US11066412B2, “Substituted pyrrolo[2,1-a]phthalazines and benzo[g]pyrrolo[2,1-a]phthalazines for the treatment of cancer” (Academia Sinica, priority 2017, dated 2021).
Like-named read-outs stand apart in the source and are kept apart here.

How the values were obtained:
[1] = tested on: human lymphoblastic leukemia cell line (CCRF-CEM); experiment: in vitro cytotoxicity, PrestoBlue assay; type: cell-based; conditions: 72-hr incubation; mean ± STDEV of three to six experiments; read-out: IC50 CCRF-CEM
How it was run: (§1)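 Cells exposed to compounds for 72 hr, then viability read by PrestoBlue after 1-2 hr at 37° C, absorbance 570 and 600 nm.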

colon cancer HCT-116 = experiment: in vitro cytotoxicity, PrestoBlue assay; type: cell-based, human; conditions: Table 2
How it was run: as §1

[2] = tested on: non-small cell lung cancer H460; experiment: in vitro cytotoxicity, PrestoBlue assay; type: cell-based, human; conditions: Table 2
How it was run: as §1

pancreatic cancer PacaS1 = experiment: in vitro cytotoxicity, PrestoBlue assay; type: cell-based, human; conditions: Table 2
How it was run: as §1

[3] = tested on: vinblastine-resistant sub-cell line (CCRF-CEM/VBL); experiment: in vitro cytotoxicity, PrestoBlue assay; type: cell-based, human; conditions: for IC50: 72-hr incubation, mean ± STDEV of three to six experiments, read-out: IC50 CEM/VBL; for resistance factor (IC50 CEM/VBL vs IC50 of the parent cell line): number in brackets
How it was run: as §1

[4] = tested on: small cell lung cancer H526; experiment: in vitro cytotoxicity, PrestoBlue assay; type: cell-based, human; conditions: read-out: IC50 H526
pEGFP-N1 plasmid DNA = experiment: DNA cross-linking, alkaline agarose gel electrophoresis; type: biochemical; conditions: FIG. 1; for formation of DNA interstrand crosslinks: 1-20 μM, 37° C., 2 hrs
Procedure: In the present example, BO-2590, BO-2577 (Formula I-A) and BO-2698, BO-2755, BO-2762 and BO-2768 (Formula I-B) were tested for their DNA crosslinking activity, in which the cross-linking was analyzed by alkaline agarose gel electrophoresis. In brief, purified pEGFP-N1 plasmid DNA (1,500 ng) was mixed with various concentrations (1-20 μM) of the tested compounds in 40 μL binding buffer (3 mM sodium chloride/1 mM sodium phosphate, pH 7.4, and 1 mM EDTA). The reaction mixture was incubated at 37° C. for 2 hrs. At the end of reaction, the plasmid DNA was linearized by digestion with BamHI and followed by precipitation with ethanol. The DNA pellets were dissolved and denatured in alkaline buffer (0.5 N NaOH-10mM EDTA). An aliquot of 20 μL of DNA solution (1,000 ng) was mixed with 4 μL of 6× alkaline loading dye and then electrophoretically resolved on a 0.8% alkaline agarose gel with NaOH-EDTA buffer at 4° C. The electrophoresis was carried out at 18V for 22 h. After staining the gels with an ethidium bromide solution, the DNA was visualized under UV light. Results are illustrated in FIG. 1.

VEGFR-2 = target: T1, VEGFR-2 (Homo sapiens, UniProt P35968); experiment: VEGFR-2 activation, western blotting in EA.hy926 cells; type: cell-based
T1 construct: endogenous in cells; host or cells: EA.hy926 endothelial cells
Procedure: In the present example, BO-2590 and BO-2577 were subject to the test of their activity in suppressing VEGFR-2 by western blotting analysis. Briefly, the endothelial EA.hy926 cells were incubated with BO-2590 or BO-2577 at various concentrations for 12 hr. The primary antibodies, anti-VEGFR-2 and anti-p-VEGFR-2, were used to blot the proteins of total VEGFR-2 and p-VEGFR-2, respectively. Results are illustrated in FIG. 3.

[5] = tested on: human SCLC H526 xenografts; experiment: tumor growth in xenograft-bearing nude mice; type: in vivo; conditions: for tumor size: micelle formulation (Kolliphor/TWEEN 80/PEG400/ethanol/D5W), BO-2768 at 20 mg/kg twice daily, FIG. 12, panel A
Procedure: Athymic nude mice bearing the nu/nu gene were obtained from the National Laboratory Animal Center (Taipei, Taiwan). Male nude mice (6 weeks or older weighing 20-24 g or more) were used for all human tumor xenografts. The tested compounds were intravenously administered through tail vein. Tumor volume was determined by measuring the length x width x height (or width) with calipers. […] For tumor-bearing nude mice during the course of the experiment, the % body weight changes refer to: (the total weight on reading day/the total weight on day treatment started)×100.
In all experiments, the tumor cells were subcutaneously implanted in nude mice, and the BO-2590L was administered via tail vein when the tumor size reaching approximate 100 mm^3. […]
To confirm the therapeutic activity of BO-2590L, comparative experiments carried out by known chemotherapeutic agents, such as vatanalib and cisplatin, were also performed. Briefly, the H526 xenograft-bearing mice were divided into 4 groups which were treated with vehicle, BO-2590L (10 mg/kg, QD×9), vatalanib (100 mg/kg, QD×9), and cisplatin (4 mg/kg, Q2D×3), respectively. Results are illustrated in FIG. 11.
Results are illustrated in FIGS. 12 and 13.

[6] = body weight changes of xenograft-bearing nude mice; type: in vivo; conditions: for deleterious effects on the bodyweight of the test animals: micelle formulation, FIG. 12, panel B
Procedure: Athymic nude mice bearing the nu/nu gene were obtained from the National Laboratory Animal Center (Taipei, Taiwan). Male nude mice (6 weeks or older weighing 20-24 g or more) were used for all human tumor xenografts. The tested compounds were intravenously administered through tail vein. Tumor volume was determined by measuring the length x width x height (or width) with calipers. The vehicle used for the tested compounds was normal saline (0.9% NaCl isotonic solution). For tumor-bearing nude mice during the course of the experiment, the % body weight changes refer to: (the total weight on reading day/the total weight on day treatment started)×100.

H526 cells = experiment: single cell electrophoresis (comet) assay; type: cell-based; conditions: FIG. 2
Description: The data is the average of 3 independent experiments.
To this purpose, cells were encapsulating in a low-melting-point agarose suspension on a microscope slide, then were lysed in neutral or alkaline (pH>13) condition, and electrophoresis of the suspended lysed cells. The term “comet” refers to the pattern of DNA migration through the electrophoresis gel, which often resembles a comet, and the intensity of the comet tail relative to the head reflects the number of DNA breaks.

T1 sequence (P35968 20-1356): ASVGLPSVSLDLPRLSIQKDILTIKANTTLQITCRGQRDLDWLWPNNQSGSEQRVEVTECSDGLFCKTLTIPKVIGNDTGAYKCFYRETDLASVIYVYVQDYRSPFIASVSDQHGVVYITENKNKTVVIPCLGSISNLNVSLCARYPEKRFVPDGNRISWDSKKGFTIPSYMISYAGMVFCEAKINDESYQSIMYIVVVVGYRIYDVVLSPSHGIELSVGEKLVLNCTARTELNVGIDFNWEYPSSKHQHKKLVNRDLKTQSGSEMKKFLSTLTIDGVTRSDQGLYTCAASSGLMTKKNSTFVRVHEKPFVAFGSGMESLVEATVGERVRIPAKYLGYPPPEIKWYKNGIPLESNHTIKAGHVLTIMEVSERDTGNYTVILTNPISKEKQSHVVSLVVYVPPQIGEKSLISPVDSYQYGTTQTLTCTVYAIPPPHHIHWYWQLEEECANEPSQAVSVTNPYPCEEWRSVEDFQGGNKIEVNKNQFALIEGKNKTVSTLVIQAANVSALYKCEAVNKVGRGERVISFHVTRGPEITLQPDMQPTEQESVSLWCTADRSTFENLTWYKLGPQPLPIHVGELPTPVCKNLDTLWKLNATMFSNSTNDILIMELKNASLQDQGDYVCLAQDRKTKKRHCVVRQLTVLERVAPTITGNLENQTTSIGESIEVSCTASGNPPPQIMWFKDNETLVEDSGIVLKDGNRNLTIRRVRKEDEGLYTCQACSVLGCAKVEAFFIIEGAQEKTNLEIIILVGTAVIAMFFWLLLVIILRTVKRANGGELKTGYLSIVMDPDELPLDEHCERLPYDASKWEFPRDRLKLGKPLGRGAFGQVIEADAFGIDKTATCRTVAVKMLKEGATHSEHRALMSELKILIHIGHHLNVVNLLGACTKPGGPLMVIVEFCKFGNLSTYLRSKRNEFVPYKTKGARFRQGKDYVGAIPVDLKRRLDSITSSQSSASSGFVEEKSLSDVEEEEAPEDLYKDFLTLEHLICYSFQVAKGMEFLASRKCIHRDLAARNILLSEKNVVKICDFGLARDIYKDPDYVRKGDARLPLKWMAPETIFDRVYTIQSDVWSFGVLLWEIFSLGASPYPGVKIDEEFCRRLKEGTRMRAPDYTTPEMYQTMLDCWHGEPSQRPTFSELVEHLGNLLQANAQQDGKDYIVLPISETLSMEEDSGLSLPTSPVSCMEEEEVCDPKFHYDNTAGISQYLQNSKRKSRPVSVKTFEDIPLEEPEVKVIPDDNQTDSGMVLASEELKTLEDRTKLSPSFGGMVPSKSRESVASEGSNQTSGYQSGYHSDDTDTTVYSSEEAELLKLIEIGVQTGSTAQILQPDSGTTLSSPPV

dose effective on suppression of p-VEGFR-2, lower than that of Valatanib (VEGFR-2; relative to Valatanib) | Structure (SMILES) | IC50 [1] | IC50 (colon cancer HCT-116) | IC50 [2] | IC50 Paca SI (pancreatic cancer PacaS1) | IC50 [3] | resistance factor (IC50 CEM/VBL vs IC50 of the parent cell line) [3] | IC50 ([4]; Table 2) | formation of DNA interstrand crosslinks (pEGFP-N1 plasmid DNA) | cross-linker strength compared with melphalan (pEGFP-N1 plasmid DNA) | p-VEGFR-2 protein levels (VEGFR-2; EA.hy926 cells, 12 hr, FIG. 3) | total protein levels of VEGFR-2 (VEGFR-2; EA.hy926 cells, 12 hr, FIG. 3) | tumor size [5] | deleterious effects on the bodyweight of the test animals ([6]; H526 xenograft mice) | IC50 ([4]; Table 3) | DNA damage (comet tail) (H526 cells) | tumor growth ([5]; 20 mg/kg twice per day, entire time of the study, FIG. 13, panel A) | tumor growth, dose dependence ([5]; FIG. 13, panel A) | body weight of the test animals ([6]; H211 xenograft mice, co-administration of BO-2768 and cisplatin, FIG. 14, panel B) | effects on the bodyweight of the test animals ([6]; H526 xenograft mice, 20 mg/kg twice per day, FIG. 13, panel B)
~10 folds | Cc1c(CO)c(CO)c2c3ccccc3c(N3CCC(N4CCCCC4)CC3)nn12 [BO-2590, (6-([1,4′-Bipiperidin]-1′-yl)-3-methylpyrrolo[2,1-α]phthalazine-1,2-diyl)dimethanol] | 230 ± 30 nM | 400 ± 90 nM | 600 ± 110 nM | 300 ± 80 nM | 250 ± 40 nM | 1.09 × | 14 ± 4 nM | induced DNA interstrand crosslinks | relatively stronger cross-linker than that of melphalan | marked suppression in p-VEGFR-2 protein levels | did not significantly change the total protein levels of VEGFR-2 | as effective as irinotecan and cisplatin in reducing the tumor size | none | – | – | – | – | – | –
– | Cc1c(CO)c(CO)c2c3cc4ccccc4cc3c(N(C)C)nn12 [BO-2768, (6-(Dimethylamino)-3-methylbenzo[g]pyrrolo[2,1-α]phthalazine-1,2-diyl)dimethanol] | 190 ± 10 nM | 650 ± 20 nM | 1020 ± 160 nM | 3980 ± 1040 nM | 100 ± 10 nM | 0.53 × | 50 ± 1 nM | induced DNA interstrand crosslinks | – | – | – | growth of tumor was completely suppressed | none | 40 ± 5 nM | capable of inducing DNA breaks in a dose dependent manner | completely suppress the growth of tumor | suppressed tumor growth in a dose-dependent manner | without adversely affecting the body weight | without any deleterious effects on the bodyweight
